According to paper PMC12144419, “Early preclinical development of Mycobacteriumtuberculosis amino acid biosynthesis pathway inhibitor DRILS-1398 as a potential anti-TB drug” (iScience, 2025):
Values joined by “and” are separate entries in the source; they are usually repeats but may differ in a detail not shown here. Identical values can stand only once. “Also recorded” adds a separate entry of the source. Like-named read-outs stand apart in the source and are kept apart here.

Tests used:
M.tb H37Rv [1] = assay: Histopathology (H&E, ZN stain) of lungs of infected mice; details: for Granuloma in the lung: DRILS-1398 and DRILS-1398(F) 30 mg/kg, isoniazid 5 mg/kg; for Acid-fast bacilli load in lung, ZN staining: vs infected mice without drug
[2] = target: M.tb chorismate mutase (M.tb-CM) (Mycobacterium tuberculosis, UniProt P9WIB9); assay: CM assay (in vitro substrate competition enzymatic assay, chorismate to prephenate, OD 274 nm); assay type: biochemical
Procedure: The activity of the CM enzyme was based on direct observation of the conversion of chorismate to prephenate at OD 274 nm.[32] The reaction volume of the assay was maintained at 100 μl. 1mM of the substrate, chorismic acid (Sigma) was pre-incubated at 37°C for 5 min in the buffer (containing 50mM Tris-HCl (pH 7.5), 0.5mM EDTA, 0.1 mg/mL bovine serum albumin, and 10 mM β-Mercaptoethanol). The reaction was started by adding 180 pmol of CM enzyme to the prewarmed chorismic acid solution. Inhibitory screening of the compounds against CM activity was measured at 100 nM to 50 μM concentration of the effectors. The reaction was allowed to proceed at 37°C and was terminated after 5 min with 100 μl of 1 N HCl. Disappearance of substrate was measured at 274 nm. A blank with no enzyme for every reaction was kept as a control to account for the non-enzymatic conversion of chorismate to prephenate.

M.tb H37Rv cells = assay: In vitro amino acid supplementation (rescue) growth experiment; assay type: cell-based, Mycobacterium tuberculosis; details: amino acid 100 μg/mL
MDR-M.tb ATCC 35825 = assay: Broth dilution MIC by turbidometry; assay type: cell-based; details: Mycobacterium tuberculosis, ATCC35825
M.tb. ATCC-27294 strain = assay: MIC against M.tb ATCC-27294; assay type: cell-based; details: Mycobacterium tuberculosis, ATCC27294
[3] = test system: intracellular MDR-M.tb H37Rv (ATCC 35825) in activated THP-1 macrophages; assay: Intracellular efficacy THP-1 macrophage assay, MDR-M.tb ATCC 35825; assay type: cell-based, Mycobacterium tuberculosis; details: for cfu reduction vs day 7 control, combination study: Fig 4E, DRILS-1398 15 μM, rifampicin 19.45 μM, alone or combined
in vitro = in vitro ADME; details: mouse, plasma
Procedure: DRILS-1398 (5μM) was added to both sides of the membrane in an equilibrium dialysis system. Species-specific plasma (50% or 100%) was added to one side, and the system was allowed to reach equilibrium at 37 °C. LC-MS/MS measurements of compound concentration were performed on both sides of the membrane and the fraction of unbound compound was presented.[52]

[4] = Single-dose oral pharmacokinetics in male BALB/c mice; details: mouse, in vivo
Procedure: Male BALB/c mice aged 8-9 weeks were used for experimentation after a minimum of 3 days of acclimatization.[38]^,[39]^,[40] Fasted animals were administered with DRILS-1398 or DRILS-1398 (F) in a recommended vehicle (1%(v/v) Tween 80 + 99% (v/v) of 0.5% (w/v) Carboxymethylcellulose sodium salt in ultrapure water) by oral route with a dose of 50 mg/kg body weight of DRILS-1398 or 10 mg/kg and 30 mg/kg for DRILS-1398(F) at a dose volume of 10 mL/kg b.w. Under mild isoflurane anesthesia, a blood specimen was collected into pre-labeled tubes containing anticoagulant (K2EDTA - 2 mg/mL blood) during the next 24 hours of post-dose (Table-PK study design chart). The collected blood specimens were centrifuged at 6000 rpm, 4°C for 10 min, and plasma was separated and stored at -80°C until analysis. […] Concentrations of analyte DRILS-1398 in mice plasma samples were determined using the Shimadzu LCMS-8045 LC-MS/MS system. The protocols were approved by the Institutional Animal Ethics Committee of the Preclinical Research Department, Anthem Biosciences Pvt. Ltd., Bangalore 560099, India (Study no for 50mg/kg PK study: N20084, (ABD/IASE/PR/185/19-22) and the study no for PK studies for 10mg/kg and 30mg/kg of DRILS-1398(F): ABD-8056 and ABD-7967A (ABD/IAEC/PR/89-17-20) respectively.

[5] = Single-dose IV pharmacokinetics in male BALB/c mice; assay type: in vivo; details: mouse, 10 mg/kg
Procedure: The intravenous (IV) (10 mg/kg of DRILS-1398) dosing study on BALB/c male mice (n=3 per time point, not more than 2 bleeds per animal, total animals dosed n=12) was carried out on the following time points through saphenous veins; IV: 15 mins, 30 mins, 1, 2, 4, 6, 8 and 24 hr. Collected blood specimens were centrifuged at 6000rpm, 4°C for 10 minutes, and plasma was separated and stored at -80°C until analysis. […] Concentrations of analyte DRILS-1398 in mice plasma samples were determined using the Shimadzu LCMS-8045 LC-MS/MS system. The protocol was approved by the Institutional Animal Ethics Committee of the Preclinical Research Department, Anthem Biosciences Pvt. Ltd., Bangalore 560099, India (protocol number for 10 mg/kg IV PK study: ABD-7967B (ABD/IAEC/PR/89-17-20).

[6] = Repeated dose 7-day toxicity study; assay type: in vivo, BALB/c mice
Procedure: As per the guideline,[58]^,[59] 40 males and 40 females were assigned into four groups of ten animals/sex per group viz., Vehicle control (G1), Low dose (G2), Mid Dose (G3) and High dose (G4). The test item formulations were prepared freshly in Ultra-pure water type 1 as a vehicle. The vehicle alone was administered to the vehicle control (G1) animals. Test item formulations were administered daily once at dose levels of 125 (G2), 250 (G3) and 500 (G4) mg/kg b.w./day. All the animals were administered a dose volume of 10 mL/kg b.w. once daily for 7 consecutive days. All the animals were observed once daily for clinical signs, twice daily for mortality/morbidity, and on day 7 for detailed clinical examination. Body weights and feed consumption were recorded at weekly intervals. At the end of the experimental period (day 8), blood and harvested plasma specimens were analyzed for haematology and clinical chemistry parameters, respectively. Subsequently, the animals were euthanized and subjected to gross pathological examination. The specified organs were collected and preserved in 10% NBF for histopathological evaluation. The protocol was approved by the Institutional Animal Ethics Committee of the Preclinical Research Department, Anthem Biosciences Pvt. Ltd., Bangalore 560099, India. Study no: N23041 (ABD/IAEC/PR/296-23-24).

[7] = microsomes; for Mouse microsomal stability: 3 µM
CYP 2C9 = CYP 2C9 (Homo sapiens, UniProt P11712); assay: biochemical
Procedure: (§1) This study performed CYP inhibition assay using Vivid CYP P450 (1A2, 2C9, 2C19, 2D6, and 3A4) blue screening kits.[56] […] The fluorescent reading was taken using a microplate reader at excitation/emission wavelengths of 415/460 nm, respectively. The % of CYP inhibition of test/positive control at each tested concentration was calculated, and the IC50 value against each CYP isoform was plotted using Graph pad prism software.

CYP 2C19 = CYP 2C19 (Homo sapiens, UniProt P33261); assay: biochemical
Procedure: as §1

CYP 2D6 = CYP 2D6 (Homo sapiens, UniProt P10635); assay: biochemical
Procedure: as §1

CYP 3A4 = CYP 3A4 (Homo sapiens, UniProt P08684); assay: biochemical
Procedure: as §1

[8] = test system: Salmonella typhimurium TA98, TA100 and TA1537; assay: Bacterial reverse mutation test (Ames); details: 3000.0, 949.5, 300.0, 94.9 and 30.0 μg/plate, with and without rat liver S9
CYP 1A2 = CYP 1A2 (Homo sapiens, UniProt P05177); assay: Vivid CYP inhibition, fluorescent substrate method
Procedure: as §1

[9] = test system: intracellular M.tb H37Rv (ATCC 27294) in activated THP-1 macrophages; assay: Intracellular efficacy THP-1 macrophage assay, M.tb H37Rv ATCC 27294; details: for cfu reduction vs day 3 control, combination study / cfu reduction vs day 7 control, combination study: Fig 4D, DRILS-1398 15 μM, rifampicin 19.45 μM, alone or combined
Procedure: The THP-1 cells were activated with PMA (phorbol 12-myristate-13-acetate) for differentiation into macrophages. After 72 hr of activation, the THP-1 macrophages were infected with M.tb H37Rv strain (ATCC-27294 and ATCC-35825) at a multiplicity of infection (MOI) of 1:10.[34]^,[35] The macrophage infection was allowed for 2 hrs at 37°C with 5% CO2. The media containing M.tb was discarded, and macrophage monolayers were washed twice with phosphate-buffered saline to remove the extracellular bacteria and replenished with fresh, complete RPMI. The M.tb-infected macrophages were exposed to compounds by transferring 200 μL of fresh media containing the respective concentrations of the compounds. Duplicate wells were lysed (0.05% SDS) at specific time points and enumerated to estimate the numbers of intracellular M.tb 2 hr post-infection. The 0.1 mL of lysate was serially diluted and plated onto Middle brook 7H11 agar plates for enumeration (read after 3 to 4 weeks) of live M.tb after compound treatment. After 3 and 7 day exposure to the compounds, the cells were treated the same way, and the live M.tb was enumerated. The efficacy of the test compound was assessed by comparing the M.tb counts from the respective days to day 0 and day 7.

M.tb H37Rv [10] = assay: In vivo efficacy study, M.tb H37Rv infected mice (CFU in lung and spleen); details: 10-50 mg/kg on alternate days for four weeks
M.tb-CM = test system: M.tb-CM; set-up: method as in doi:10.1039/C1MD00148E; details: read-out: IC50, inhibition of M.tb-CM; cited from earlier work
[11] = Table S4, lung of infected treated mice
[12] = up to 500 mg/kg b.w./day, 7 days

M.tb chorismate mutase (M.tb-CM), sequence (P9WIB9 34-199): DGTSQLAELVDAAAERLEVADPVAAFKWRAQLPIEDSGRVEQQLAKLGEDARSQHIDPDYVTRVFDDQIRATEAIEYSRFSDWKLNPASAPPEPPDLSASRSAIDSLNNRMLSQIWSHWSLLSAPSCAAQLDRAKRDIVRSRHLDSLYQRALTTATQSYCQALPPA
CYP 2C9, sequence (P11712 whole entry): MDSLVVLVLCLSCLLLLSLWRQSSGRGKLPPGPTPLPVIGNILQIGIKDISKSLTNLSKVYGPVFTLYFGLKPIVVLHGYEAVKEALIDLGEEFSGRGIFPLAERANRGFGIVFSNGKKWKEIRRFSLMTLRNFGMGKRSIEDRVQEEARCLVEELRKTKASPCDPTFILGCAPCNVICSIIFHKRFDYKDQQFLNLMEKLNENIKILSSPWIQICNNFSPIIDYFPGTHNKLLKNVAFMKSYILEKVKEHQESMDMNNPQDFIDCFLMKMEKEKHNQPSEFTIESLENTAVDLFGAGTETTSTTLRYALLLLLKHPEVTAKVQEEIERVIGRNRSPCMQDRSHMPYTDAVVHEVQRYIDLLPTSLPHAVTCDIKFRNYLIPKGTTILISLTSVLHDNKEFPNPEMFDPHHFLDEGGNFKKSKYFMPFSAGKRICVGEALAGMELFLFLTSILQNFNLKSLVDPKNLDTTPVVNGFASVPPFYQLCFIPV
CYP 3A4, sequence (P08684 whole entry): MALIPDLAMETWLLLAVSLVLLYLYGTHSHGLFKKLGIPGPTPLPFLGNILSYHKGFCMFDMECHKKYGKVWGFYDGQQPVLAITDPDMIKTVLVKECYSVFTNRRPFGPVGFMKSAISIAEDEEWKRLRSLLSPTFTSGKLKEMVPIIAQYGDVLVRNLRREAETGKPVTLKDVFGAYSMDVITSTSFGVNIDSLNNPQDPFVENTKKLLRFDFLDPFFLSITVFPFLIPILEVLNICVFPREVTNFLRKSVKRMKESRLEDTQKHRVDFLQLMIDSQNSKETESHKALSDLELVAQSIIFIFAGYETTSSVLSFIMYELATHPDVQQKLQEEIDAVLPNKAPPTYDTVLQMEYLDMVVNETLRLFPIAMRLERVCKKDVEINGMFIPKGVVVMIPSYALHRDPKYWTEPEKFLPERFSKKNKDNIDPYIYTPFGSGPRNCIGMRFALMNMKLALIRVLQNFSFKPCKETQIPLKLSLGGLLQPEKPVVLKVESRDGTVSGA
CYP 2D6, sequence (P10635 whole entry): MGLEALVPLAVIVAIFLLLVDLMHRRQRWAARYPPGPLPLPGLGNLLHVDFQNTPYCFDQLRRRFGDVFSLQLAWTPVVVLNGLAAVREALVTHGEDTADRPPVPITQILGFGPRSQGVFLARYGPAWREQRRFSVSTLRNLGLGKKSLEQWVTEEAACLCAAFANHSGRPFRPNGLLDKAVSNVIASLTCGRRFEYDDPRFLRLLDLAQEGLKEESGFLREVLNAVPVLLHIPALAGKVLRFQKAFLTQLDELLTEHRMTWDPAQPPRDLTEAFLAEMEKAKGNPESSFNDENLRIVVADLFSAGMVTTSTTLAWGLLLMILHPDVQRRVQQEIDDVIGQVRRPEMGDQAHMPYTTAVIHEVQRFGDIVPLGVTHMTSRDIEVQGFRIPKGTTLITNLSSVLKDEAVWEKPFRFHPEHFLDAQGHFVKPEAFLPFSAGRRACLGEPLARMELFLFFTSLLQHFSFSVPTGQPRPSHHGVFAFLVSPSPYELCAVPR
CYP 2C19, sequence (P33261 whole entry): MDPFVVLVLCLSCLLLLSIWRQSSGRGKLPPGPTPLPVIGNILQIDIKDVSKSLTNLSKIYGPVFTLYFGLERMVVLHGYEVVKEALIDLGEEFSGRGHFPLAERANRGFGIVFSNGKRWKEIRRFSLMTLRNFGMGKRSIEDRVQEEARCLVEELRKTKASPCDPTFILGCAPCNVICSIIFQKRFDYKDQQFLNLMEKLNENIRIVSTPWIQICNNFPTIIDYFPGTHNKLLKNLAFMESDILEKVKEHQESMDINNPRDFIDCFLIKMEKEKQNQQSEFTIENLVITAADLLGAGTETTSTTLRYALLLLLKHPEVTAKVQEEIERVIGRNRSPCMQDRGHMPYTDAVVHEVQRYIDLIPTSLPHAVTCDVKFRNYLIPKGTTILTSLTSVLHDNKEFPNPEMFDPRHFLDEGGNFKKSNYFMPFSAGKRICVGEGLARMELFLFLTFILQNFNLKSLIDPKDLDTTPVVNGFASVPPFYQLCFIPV
CYP 1A2, sequence (P05177 whole entry): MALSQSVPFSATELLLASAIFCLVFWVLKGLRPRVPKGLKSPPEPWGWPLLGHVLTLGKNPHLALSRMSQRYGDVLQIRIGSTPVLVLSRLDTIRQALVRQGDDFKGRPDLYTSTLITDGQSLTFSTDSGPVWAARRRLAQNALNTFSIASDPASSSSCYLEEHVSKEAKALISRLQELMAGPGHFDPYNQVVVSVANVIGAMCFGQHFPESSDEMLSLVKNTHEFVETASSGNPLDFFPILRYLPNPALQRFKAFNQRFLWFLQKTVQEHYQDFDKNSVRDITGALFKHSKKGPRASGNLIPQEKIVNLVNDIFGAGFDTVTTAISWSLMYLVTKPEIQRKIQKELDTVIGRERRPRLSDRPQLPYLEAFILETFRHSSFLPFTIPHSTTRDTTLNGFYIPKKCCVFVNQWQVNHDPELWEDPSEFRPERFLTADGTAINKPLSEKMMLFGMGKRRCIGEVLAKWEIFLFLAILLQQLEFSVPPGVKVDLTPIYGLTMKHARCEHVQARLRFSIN

## NNC(=O)c1ccncc1 [Isoniazid, reference compound]
M.tb H37Rv [1]
  Granuloma in the lung: no signs of granuloma
  Acid-fast bacilli load in lung, ZN staining: minimal presence of bacilli
M.tb H37Rv [1]; [11]
  Granuloma: -
  ZN stain (Acid Fast Bacilli): +

## CCCc1nn(C)c2c(-c3c[nH]c4ccc(Cl)cc34)nc(-c3ccc(Cl)cc3)nc12 [DRILS-1398]
[2]; IC50, inhibition of M.tb-CM activity, n = 3
  IC50: 3 µM and ~3 µM
[2]; read-out: IC90, inhibition of M.tb-CM activity
  IC90: 10 µM
M.tb H37Rv cells; 4 μg/mL compound, until 96 h
  Growth of M.tb H37Rv with compound, amino acids added after 24 h: showed inhibitory effects up to 24 h
M.tb H37Rv cells; ~10 μM compound, 24-96 h
  Growth of M.tb H37Rv with compound and tyrosine or phenylalanine added at time 0: amino acid supplementation rescued the cells from the inhibitory effects
MDR-M.tb ATCC 35825
  MIC: 4 µg/mL and ~10 µM
M.tb. ATCC-27294 strain; M.tb ATCC-27294
  MIC: 6.53 µg/mL
M.tb. ATCC-27294 strain; M.tb ATCC-27294, converted
  MIC: ~15 µM
[3]; Fig 4C, day 3, C1: DRILS-1398 15 μM, rifampicin 13.16 μM
  cfu reduction vs day-3 control: 0.40 log10 cfu/mL
[3]; Fig 4C, day 7, C1: DRILS-1398 15 μM, rifampicin 13.16 μM
  cfu reduction vs day-7 control: 0.70 log10 cfu/mL
[3]; day 7
  cfu reduction vs day 7 control, combination study: 0.77 log10 cfu/mL
In vitro
  fraction unbound at 5 µM: ~0.0184
[4]; male, BALB/c, po, 50 mg/kg
  AUC(0-inf): 21400 ng·h/mL
  AUCextrap: 10.30%
  Cmax: 1580 ng/mL
  MRT last: 7.52 h
  Tmax: 4 h
[4]; male, BALB/c, oral 50 mg/kg
  AUC(0-t): 19200 ng·h/mL
  half-life: 6.95 h
[4]; po, 50 mg/kg
  Adverse clinical signs during PK treatment: did not show any adverse clinical signs
[5]; in vivo
  Approximate free drug concentration in blood plasma: ~0.4 µM
  clearance: 35 mL/min/kg
[5]; plasma, IV 10 mg/kg
  half-life: ~8.25 h
[6]; oral gavage up to 500 mg/kg b.w./day once daily for 7 days, both genders
  Clinical signs of toxicity, mortality/morbidity: no adverse clinical signs of toxicity and mortality/morbidity
[6]; [12]
  Effects on body weight, weight gain, feed consumption, hematological and clinical chemistry parameters: No treatment-related adverse effects
  Histopathological evaluation of examined tissues: no treatment-related adverse effects
[7]; 2 min
  Mouse microsomal stability: 56.45%
[7]; 5 min
  Mouse microsomal stability: 53.42%
[7]; 0.25 h
  Mouse microsomal stability: 42.18%
[7]; 0.75 h
  Mouse microsomal stability: 24.61%
[7]; 2 h
  Mouse microsomal stability: 26.57%
[7]; mouse
  Microsomal stability, verdict: moderately stable
physchem
  solubility: ≥ 50 mg/mL
CYP 2C9
  IC50: 12.2 µM
CYP 2C19
  IC50: 13.7 µM
CYP 2D6
  IC50: > 30 µM
CYP 3A4
  IC50: > 30 µM
[8]
  Mutagenic potential: did not show any mutagenic potential; also recorded: non-mutagenic
CYP 1A2
  IC50: > 30 µM
M.tb H37Rv [1]
  Granuloma in the lung: no signs of granuloma
  Acid-fast bacilli load in lung, ZN staining: significant decrease in bacilli load
M.tb H37Rv [1]; [11]
  Granuloma: -
M.tb H37Rv [1]; mouse, in vivo
  Necrosis of the lung tissue: not observed
[9]; Fig 4B, day 3, C1: DRILS-1398 15 μM, rifampicin 13.16 μM
  cfu reduction vs day-3 control: 0.59 log10 cfu/mL
[9]; Fig 4B, day 7, C1: DRILS-1398 15 μM, rifampicin 13.16 μM
  cfu reduction vs day-7 control: 1.00 log10 cfu/mL
[9]; day 3
  cfu reduction vs day 3 control, combination study: 0.42 log10 cfu/mL
[9]; day 7
  cfu reduction vs day 7 control, combination study: 0.98 log10 cfu/mL
M.tb H37Rv [10]
  Clearance of M.tb H37Rv infection in lungs and spleen (CFU): successful in clearing M.tb infection from the lungs and spleen; also recorded: effectively cleared

## CO[C@H]1/C=C/O[C@@]2(C)Oc3c(C)c(O)c4c(O)c(c(/C=N/N5CCN(C)CC5)c(O)c4c3C2=O)NC(=O)/C(C)=C\C=C\[C@H](C)[C@H](O)[C@@H](C)[C@@H](O)[C@@H](C)[C@H](OC(C)=O)[C@@H]1C [Rifampicin, reference compound]
[3]; day 7
  cfu reduction vs day 7 control, combination study: 1.96 log10 cfu/mL
[9]; day 3
  cfu reduction vs day 3 control, combination study: 1.26 log10 cfu/mL
[9]; day 7
  cfu reduction vs day 7 control, combination study: 2.28 log10 cfu/mL

## CS(=O)(=O)Nc1ccc(F)cc1-c1cc2cc(F)ccc2n1S(C)(=O)=O [B]
M.tb-CM
  IC50: ~17 µM
